Experimental data: patent US10968225B2, “Compounds and compositions for the treatment of cystic fibrosis” (Fondazione Istituto Italiano Di Tecnologia, priority 2017, dated 2021)
pEC50: −log10 of the molar value. Counter-ions that a name gives are not always drawn.

Target: T1, mutant CFTR (Homo sapiens, UniProt P13569, DEL508-508)
T1 construct: expressed in transfected cells
Experiment: Fluorescence (HS-YFP) assay for CFTR activity, corrector assay
Format: cell-based
Settings: CFBE41o- and FRT cells with stable expression of mutant CFTR, read-out: activity (EC50)

T1 sequence (P13569 with tags, fused parts or gaps DEL508-508): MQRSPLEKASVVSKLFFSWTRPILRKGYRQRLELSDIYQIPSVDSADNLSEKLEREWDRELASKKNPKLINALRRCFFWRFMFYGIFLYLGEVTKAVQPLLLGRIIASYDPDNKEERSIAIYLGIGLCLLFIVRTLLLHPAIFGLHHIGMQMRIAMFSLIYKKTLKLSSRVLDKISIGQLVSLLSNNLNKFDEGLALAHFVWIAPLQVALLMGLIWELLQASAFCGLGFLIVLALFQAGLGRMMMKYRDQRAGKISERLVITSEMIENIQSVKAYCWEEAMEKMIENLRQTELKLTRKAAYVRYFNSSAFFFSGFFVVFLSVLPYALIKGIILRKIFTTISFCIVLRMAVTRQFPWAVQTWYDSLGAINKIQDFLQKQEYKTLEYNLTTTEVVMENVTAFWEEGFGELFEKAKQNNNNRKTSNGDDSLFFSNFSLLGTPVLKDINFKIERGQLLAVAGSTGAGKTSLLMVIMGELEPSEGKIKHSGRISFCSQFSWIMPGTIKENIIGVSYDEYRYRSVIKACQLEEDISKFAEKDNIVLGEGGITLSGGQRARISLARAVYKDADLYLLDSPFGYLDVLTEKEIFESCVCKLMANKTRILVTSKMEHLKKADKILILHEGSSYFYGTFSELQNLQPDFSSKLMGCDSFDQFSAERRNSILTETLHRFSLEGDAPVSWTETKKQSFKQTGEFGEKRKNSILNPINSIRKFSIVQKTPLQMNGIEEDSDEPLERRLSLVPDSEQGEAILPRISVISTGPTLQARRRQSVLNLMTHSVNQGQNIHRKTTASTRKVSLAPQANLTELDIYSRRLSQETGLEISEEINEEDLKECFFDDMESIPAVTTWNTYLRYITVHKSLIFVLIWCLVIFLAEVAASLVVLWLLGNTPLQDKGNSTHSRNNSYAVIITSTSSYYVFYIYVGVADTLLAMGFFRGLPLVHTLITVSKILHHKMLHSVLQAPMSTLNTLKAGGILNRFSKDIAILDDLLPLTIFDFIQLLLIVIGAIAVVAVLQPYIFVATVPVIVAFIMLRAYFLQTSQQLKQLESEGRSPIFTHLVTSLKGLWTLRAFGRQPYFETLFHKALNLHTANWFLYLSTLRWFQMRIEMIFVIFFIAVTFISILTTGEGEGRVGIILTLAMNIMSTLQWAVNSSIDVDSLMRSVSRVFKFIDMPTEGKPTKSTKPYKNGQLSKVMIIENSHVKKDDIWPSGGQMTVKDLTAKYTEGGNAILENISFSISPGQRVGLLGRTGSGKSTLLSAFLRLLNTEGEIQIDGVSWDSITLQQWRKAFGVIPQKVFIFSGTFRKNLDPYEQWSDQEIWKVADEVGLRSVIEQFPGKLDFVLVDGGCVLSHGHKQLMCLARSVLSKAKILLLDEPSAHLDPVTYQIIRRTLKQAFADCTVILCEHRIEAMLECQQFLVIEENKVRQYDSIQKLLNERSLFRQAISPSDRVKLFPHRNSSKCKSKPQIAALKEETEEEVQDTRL

SMILES	pEC50
CN(C(=O)c1cccc(-n2nc(C(F)(F)F)c3c2CCN(S(=O)(=O)c2ccc(C#N)cc2)C3)c1)c1ccc2c(c1)OCO2 [Compound 063, N-(1,3-Benzodioxol-5-yl)-3-[5-(4-cyanophenyl)sulfonyl-3-(trifluoromethyl)-6,7-dihydro-4H-pyrazolo[4,3-c]pyridin-1-yl]-N-methyl-benzamide]	> 6.00
Cc1nc(S(=O)(=O)N2CCc3c(c(C(F)(F)F)nn3-c3cccc(C(=O)N(C)c4ccc5c(c4)OCO5)c3)C2)cn1C [Compound 064, N-(1,3-Benzodioxol-5-yl)-3-[5-(1,2-dimethylimidazol-4-yl)sulfonyl-3-(trifluoromethyl)-6,7-dihydro-4H-pyrazolo[4,3-c]pyridin-1-yl]-N-methyl-benzamide]	> 6.00
CN(c1ccc2c(c1)OCO2)S(=O)(=O)c1cccc(-n2nc(C(F)(F)F)c3c2CCN(C(=O)OC(C)(C)C)C3)c1 [Compound 065, tert-Butyl 1-[3-[1,3-benzodioxol-5-yl(methyl)sulfamoyl]phenyl]-3-(trifluoromethyl)-6,7-dihydro-4H-pyrazolo[4,3-c]pyridine-5-carboxylate]	< 5.70
CN(c1ccc2c(c1)OCO2)S(=O)(=O)c1cccc(-n2nc(C(F)(F)F)c3c2CCNC3)c1 [Compound 066, N-(1,3-Benzodioxol-5-yl)-N-methyl-3-[3-(trifluoromethyl)-4,5,6,7-tetrahydropyrazolo[4,3-c]pyridin-1-yl] benzenesulfonamide hydrochloride]	> 6.00
Cc1noc(C)c1S(=O)(=O)N1CCc2c(c(C(F)(F)F)nn2-c2cccc(C(=O)N(C)c3ccc4c(c3)OCO4)c2)C1 [Compound 067, N-(1,3-benzodioxol-5-yl)-3-[5-(3,5-dimethylisoxazol-4-yl)sulfonyl-3-(trifluoromethyl)-6,7-dihydro-4H-pyrazolo[4,3-c]pyridin-1-yl]-N-methyl-benzamide]	> 6.00
COCCS(=O)(=O)N1CCc2c(c(C(F)(F)F)nn2-c2cccc(C(=O)N(C)c3ccc4c(c3)OCO4)c2)C1 [Compound 068, N-(1,3-benzodioxol-5-yl)-3-[5-(2-methoxyethylsulfonyl)-3-(trifluoromethyl)-6,7-dihydro-4H-pyrazolo[4,3-c]pyridin-1-yl]-N-methyl-benzamide]	> 6.00
Cc1n[nH]c(C)c1S(=O)(=O)N1CCc2c(c(C(F)(F)F)nn2-c2cccc(C(=O)N(C)c3ccc4c(c3)OCO4)c2)C1 [Compound 069, N-(1,3-Benzodioxol-5-yl)-3-[5-[(3,5-dimethyl-4H-pyrazol-4-yl)sulfonyl]-3-(trifluoromethyl)-6,7-dihydro-4H-pyrazolo[4,3-c]pyridin-1-yl]-N-methyl-benzamide]	> 6.00
COC(=O)c1ccc(S(=O)(=O)N2C3CCC2c2c(C(F)(F)F)nn(-c4cccc(C(=O)N(C)c5ccc6c(c5)OCO6)c4)c2C3)cc1 (stereo not drawn) [Compound 070, Methyl 4-((1-(3-(benzo[d][1,3]dioxol-5-yl(methyl)carbamoyl)phenyl)-3-(trifluoromethyl)-1,4,5,6,7,8-hexahydro-4,7-epiminocyclohepta[c]pyrazol-9-yl)sulfonyl)benzoate]	> 6.00
CN1CCc2c(c(C(F)(F)F)nn2-c2cccc(S(=O)(=O)N(C)c3ccc4c(c3)OCO4)c2)C1 [Compound 071, N-(1,3-Benzodioxol-5-yl)-N-methyl-3-[5-methyl-3-(trifluoromethyl)-6,7-dihydro-4H-pyrazolo[4,3-c]pyridin-1-yl]benzenesulfonamide]	< 5.70
CN(C(=O)c1cccc(-n2nc(C(F)(F)F)c3c2CN(C(=O)C(C)(C)C)CC3)c1)c1ccc2c(c1)OCO2 [Compound 072, N-(1,3-Benzodioxol-5-yl)-3-[6-(2,2-dimethylpropanoyl)-3-(trifluoromethyl)-5,7-dihydro-4H-pyrazolo[3,4-c]pyridin-1-yl]-N-methyl-benzamide]	> 6.00
COC(=O)c1ccc(S(=O)(=O)N2CCc3c(C(F)(F)F)nn(-c4cccc(C(=O)N(C)c5ccc6c(c5)OCO6)c4)c3C2)cc1 [Compound 075, Methyl 4-[[1-[3-[1,3-benzodioxol-5-yl(methyl)carbamoyl]phenyl]-3-(trifluoromethyl)-5,7-dihydro-4H-pyrazolo[3,4-c]pyridin-6-yl]sulfonyl]benzoate]	> 6.00
CN(C(=O)c1cccc(-n2nc(C(F)(F)F)c3c2CN(S(=O)(=O)c2ccc(C(=O)O)cc2)CC3)c1)c1ccc2c(c1)OCO2 [Compound 077, 4-[[1-[3-[1,3-Benzodioxol-5-yl(methyl)carbamoyl]phenyl]-3-(trifluoromethyl)-5,7-dihydro-4H-pyrazolo[3,4-c]pyridin-6-yl]sulfonyl]benzoic acid]	5.70 to 6.00
Cc1nc2ccc(NC(=O)c3cccc(-n4nc(C(F)(F)F)c5c4CCN(C(=O)C(C)(C)C)C5)c3)cn2n1 [Compound 078, 3-[5-(2,2-Dimethylpropanoyl)-3-(trifluoromethyl)-6,7-dihydro-4Hpyrazolo[4,3-c]pyridin-1-yl]-N-(2-methyl-[1,2,4]triazolo[1,5-a]pyridin-6-yl)benzamide]	< 5.70
Cc1n[nH]c2ncc(NC(=O)c3cccc(-n4nc(C(F)(F)F)c5c4CCN(C(=O)C(C)(C)C)C5)c3)cc12 [Compound 079, 3-[5-(2,2-Dimethylpropanoyl)-3-(trifluoromethyl)-6,7-dihydro-4Hpyrazolo[4,3-c]pyridin-1-yl]-N-(3-methyl-1H-pyrazolo[3,4-b]pyridin-5-yl)benzamide]	< 5.70
COc1ccc(NC(=O)c2cccc(-n3nc(C(F)(F)F)c4c3CCN(C(=O)C(C)(C)C)C4)c2)cn1 [Compound 080, 3-[5-(2,2-Dimethylpropanoyl)-3-(trifluoromethyl)-6,7-dihydro-4Hpyrazolo[4,3-c]pyridin-1-yl]-N-(6-methoxy-3-pyridyl)benzamide]	< 5.70
COc1ncc(NC(=O)c2cccc(-n3nc(C(F)(F)F)c4c3CCN(C(=O)C(C)(C)C)C4)c2)cn1 [Compound 081, 3-[5-(2,2-Dimethylpropanoyl)-3-(trifluoromethyl)-6,7-dihydro-4H-pyrazolo[4,3-c]pyridin-1-yl]-N-(2-methoxypyrimidin-5-yl)benzamide]	< 5.70
Cc1nn(CCC(=O)OC(C)(C)C)c(C)c1S(=O)(=O)N1CCc2c(c(C(F)(F)F)nn2-c2cccc(C(=O)N(C)c3ccc4c(c3)OCO4)c2)C1 [Compound 082, tert-Butyl 3-[4-[[1-[3-[1,3-benzodioxol-5-yl(methyl)carbamoyl]phenyl]-3-(trifluoromethyl)-6,7-dihydro-4H-pyrazolo[4,3-c]pyridin-5-yl]sulfonyl]-3,5-dimethyl-pyrazol-1-yl]propanoate]	> 6.00
COc1cc(NC(=O)c2cccc(-n3nc(C(F)(F)F)c4c3CCN(C(=O)C(C)(C)C)C4)c2)ccn1 [Compound 083, 3-[5-(2,2-Dimethylpropanoyl)-3-(trifluoromethyl)-6,7-dihydro-4Hpyrazolo[4,3-c]pyridin-1-yl]-N-(2-methoxy-4-pyridyl)benzamide]	< 5.70
Cc1cn2cc(NC(=O)c3cccc(-n4nc(C(F)(F)F)c5c4CCN(C(=O)C(C)(C)C)C5)c3)ccc2n1 [Compound 084, 3-[5-(2,2-Dimethylpropanoyl)-3-(trifluoromethyl)-6,7-dihydro-4H-pyrazolo[4,3-c]pyridin-1-yl]-N-(2-methylimidazo [1,2-a]pyridin-6-yl)benzamide]	< 5.70
COc1ccc(N(C)C(=O)c2cccc(-n3nc(C(F)(F)F)c4c3CCN(C(=O)C(C)(C)C)C4)c2)cn1 [Compound 085, 3-[5-(2,2-Dimethylpropanoyl)-3-(trifluoromethyl)-6,7-dihydro-4Hpyrazolo[4,3-c]pyridin-1-yl]-N-(6-methoxy-3-pyridyl)-N-methylbenzamide]	> 6.00
Cc1nn(CCC(=O)O)c(C)c1S(=O)(=O)N1CCc2c(c(C(F)(F)F)nn2-c2cccc(C(=O)N(C)c3ccc4c(c3)OCO4)c2)C1 [Compound 086, 3-[4-[[1-[3-[1,3-Benzodioxol-5-yl(methyl)carbamoyl]phenyl]-3-(trifluoromethyl)-6,7-dihydro-4H-pyrazolo[4,3-c]pyridin-5-yl]sulfonyl]-3,5-dimethyl-pyrazol-1-yl] propanoic acid]	> 6.00
Cc1[nH]nc(C(=O)O)c1S(=O)(=O)N1CCc2c(c(C(F)(F)F)nn2-c2cccc(C(=O)N(C)c3ccc4c(c3)OCO4)c2)C1 [Compound 089, 4-[[1-[3-[1,3-Benzodioxol-5-yl(methyl)carbamoyl]phenyl]-3-(trifluoromethyl)-6,7-dihydro-4H-pyrazolo[4,3-c]pyridin-5-yl]sulfonyl]-5-methyl-1H-pyrazole-3-carboxylic acid]	> 6.00
COc1cc(N(C)C(=O)c2cccc(-n3nc(C(F)(F)F)c4c3CCN(C(=O)C(C)(C)C)C4)c2)ccn1 [Compound 090, 3-[5-(2,2-Dimethylpropanoyl)-3-(trifluoromethyl)-6,7-dihydro-4H-pyrazolo[4,3-c]pyridin-1-yl]-N-(2-methoxy-4-pyridyl)-N-methyl-benzamide]	> 6.00
Cc1cn2cc(N(C)C(=O)c3cccc(-n4nc(C(F)(F)F)c5c4CCN(C(=O)C(C)(C)C)C5)c3)ccc2n1 [Compound 091, 3-[5-(2,2-Dimethylpropanoyl)-3-(trifluoromethyl)-6,7-dihydro-4H-pyrazolo[4,3-c]pyridin-1-yl]-N-methyl-N-(2-methylimidazo[1,2-a]pyridin-6-yl)benzamide]	5.70 to 6.00
Cc1noc(C)c1S(=O)(=O)N1CCc2c(c(C(F)(F)F)nn2-c2cccc(C(=O)N(C)c3ccc4c(c3)OC(F)(F)O4)c2)C1 [Compound 096, N-(2,2-Difluoro-1,3-benzodioxol-5-yl)-3-[5-(3,5-dimethylisoxazol-4-yl)sulfonyl-3-(trifluoromethyl)-6,7-dihydro-4H-pyrazolo[4,3-c]pyridin-1-yl]-N-methyl-benzamide]	> 6.00
CC(C)c1nn(-c2cccc(C(=O)N(C)c3ccc4c(c3)OC(F)(F)O4)c2)c2c1CCCC2 [Compound 102, N-(2,2-difluoro-1,3-benzodioxol-5-yl)-3-(3-isopropyl-4,5,6,7-tetrahydroindazol-1-yl)-N-methyl-benzamide]	5.70 to 6.00
Cc1nn(-c2cccc(C(=O)N(C)c3ccc4c(c3)OC(F)(F)O4)c2)c2c1CCCC2 [Compound 103, N-(2,2-Difluoro-1,3-benzodioxol-5-yl)-N-methyl-3-(3-methyl-4,5,6,7-tetrahydroindazol-1-yl)benzamide]	< 5.70
